Columns and labels:
[1] = tested on: E. coli PBP1b; experiment: Bocillin FL competition binding assay (SDS-PAGE gel, membrane PBPs); parameters: species or system Escherichia coli; settings: 15 min. pre-incubation, membrane protein extracts, SDS-PAGE fluorescence scan
Experimental: (§1) To determine the ability of test compounds to bind Penicillin Binding Proteins (PBPs), a competition binding assay using Bocillin FL (fluorescent derivative of penicillin V) was adapted from the classical method used to assess PBP potency of beta-lactams.
Penicillin binding proteins were isolated from Escherichia coli K12 by growth of Escherichia coli K12 from a single colony in 4 L of Luria-Bertani (LB) broth at 35° C. and 250 rpm to an OD600 nm of 0.5. The cells were harvested by centrifugation at 7,000×g for 10 min. at 4° C. Cells were resuspended and washed in 50 mM potassium phosphate pH 7.5. […] The membrane proteins are washed twice with 10 mM sodium phosphate pH 7, resuspended in a volume of 5 mL, quantitated by BCA assay, adjusted to 10 μg/mL and frozen at −80° C. until use.
The adapted Bocillin FL competition binding assay described herein incorporates a 15 min. pre-incubation of test compound with isolated PBPs to attempt to balance the difference in mechanism of inhibition between beta-lactams (largely irreversible covalent bond to active site Serine) and the boron-containing PBP inhibitor test compounds (reversible covalent bond to active site Serine). […] The SDS-PAGE gel, post-electrophoresis, is then washed in water to remove excess SDS for 10 minutes at room temperature and placed on the scanning bed of a GE Healthcare/Amersham Biosciences Storm 860 fluorescence scanner. […]

[2] = tested on: E. coli DH5α/pLBII-CTX-M15; experiment: Broth microdilution MIC assay, engineered strain producing CTX-M15; type: cell-based, Escherichia coli; settings: Escherichia coli, read-out: E. coli DH5α/pLBII-CTX-M15 Microbiological Activity (MIC)
Summary of the method: (§2)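 CLSI broth microdilution in cation-supplemented Mueller-Hinton broth, 2-fold compound dilutions, 5×10^5 CFU/mL inoculum, 16-20 h at 37° C, MIC read visually as lowest concentration without growth. E. coli DH5α carries CTX-M15 on pLBII under Lac promoter, or empty pLBII as control.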

[3] = tested on: S. aureus ATCC 29213; experiment: Broth microdilution MIC assay; type: cell-based; settings: Staphylococcus aureus, ATCC29213; broth microdilution, 16-20 hours at 37° C.; read-out: S. aureus 29213 MIC
Summary of the method: (§3)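 Growth inhibition is measured by CLSI broth microdilution. Log-phase bacteria (5×10^5 CFU/mL starting density) are incubated with 2-fold compound dilutions in cation-supplemented MH broth for 16-20 hours at 37° C, and the MIC is scored visually.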

[4] = tested on: hyper-permeable E. coli 901C; experiment: Broth microdilution MIC assay; type: cell-based; settings: Escherichia coli, read-out: E. coli 901C MIC
Summary of the method: as §3

[5] = target: T1, E. coli PBP3 (Escherichia coli, UniProt P0AD68); experiment: Bocillin FL competition binding assay (SDS-PAGE gel, membrane PBPs); settings: 15 min. pre-incubation, membrane protein extracts, SDS-PAGE fluorescence scan
T1 construct: 100 μg's of total membrane protein extracts containing PBPs; endogenous in cells; host or cells: Escherichia coli K12 membrane fraction
T1 sequence (P0AD68 1-577): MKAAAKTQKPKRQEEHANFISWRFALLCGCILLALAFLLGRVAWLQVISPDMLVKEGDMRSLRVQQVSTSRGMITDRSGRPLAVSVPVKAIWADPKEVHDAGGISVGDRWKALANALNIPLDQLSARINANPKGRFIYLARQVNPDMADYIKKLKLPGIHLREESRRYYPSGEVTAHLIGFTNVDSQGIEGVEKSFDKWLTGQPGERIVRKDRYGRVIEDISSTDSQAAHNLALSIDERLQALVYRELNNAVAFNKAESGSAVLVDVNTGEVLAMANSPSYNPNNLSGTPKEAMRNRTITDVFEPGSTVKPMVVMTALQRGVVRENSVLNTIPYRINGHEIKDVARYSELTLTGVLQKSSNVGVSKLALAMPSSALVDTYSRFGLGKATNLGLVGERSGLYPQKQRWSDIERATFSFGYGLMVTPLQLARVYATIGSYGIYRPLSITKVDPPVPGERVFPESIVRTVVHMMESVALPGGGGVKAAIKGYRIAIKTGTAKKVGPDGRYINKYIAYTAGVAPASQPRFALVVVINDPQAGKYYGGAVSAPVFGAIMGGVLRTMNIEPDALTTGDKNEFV
Experimental: as §1
(§4) Penicillin binding proteins were isolated from Escherichia coli K12 by growth of Escherichia coli K12 from a single colony in 4 L of Luria-Bertani (LB) broth at 35° C. and 250 rpm to an OD600 nm of 0.5. The cells were harvested by centrifugation at 7,000×g for 10 min. at 4° C. Cells were resuspended and washed in 50 mM potassium phosphate pH 7.5. The cells were re-suspended in sonication buffer [50 mM Tris-HCl pH 7.5, 1 mM MgCl2, 1 mM beta-mercaptoethanol, and 5 μg/mL DNAse I] and sonicated by 4 passes of 30 seconds at 45 W on ice. The sample was clarified by centrifugation at 3,000×g to remove cell debris and unbroken cells and supernatant containing the membrane proteins was retained. The membrane proteins including the PBPs were further purified from soluble constituents by an ultracentrifugation step at 100,000×g for 30 min. at 4° C. The membrane proteins are washed twice with 10 mM sodium phosphate pH 7, resuspended in a volume of 5 mL, quantitated by BCA assay, adjusted to […] and frozen at −80° C. until use.
(§5) The adapted Bocillin FL competition binding assay described herein incorporates a 15 min. pre-incubation of test compound with isolated PBPs to attempt to balance the difference in mechanism of inhibition between beta-lactams (largely irreversible covalent bond to active site Serine) and the boron-containing PBP inhibitor test compounds (reversible covalent bond to active site Serine). Briefly, 50 μL reactions consisted of 100 μg's of total membrane protein extracts containing PBPs incubated with a dilution series of test compound ranging from 0.005 μg/mL to 2,480 μg/mL in 10 mM sodium phosphate pH7 containing 350 mM NaCl. Thirty minute reactions at 35° C. were initiated by addition of […] Bocillin FL, quenched by addition of SDS-PAGE loading buffer containing sodium dodecyl sulfate (SDS) and heated for 15 minutes at 95° C. to denature proteins in preparation for SDS-polyacrylamide gel electrophoresis. The Bocillin FL labeled PBPs are then separated by SDS-PAGE in Novex NuPage 10% Bis-Tris pre-cast gels (Invitrogen). The SDS-PAGE gel, post-electrophoresis, is then washed in water to remove excess SDS for 10 minutes at room temperature and placed on the scanning bed of a GE Healthcare/Amersham Biosciences Storm 860 fluorescence scanner. […] Effective PBP inhibitors are detected by a reduction in Bocillin FL labeling of the particular PBP over the dose range of test compound in a dose-responsive manner. […]

[6] = target: T2, E. coli K12 PBP1a (Escherichia coli, UniProt P02918); experiment: as above; settings: 15 min. pre-incubation, membrane protein extracts, SDS-PAGE fluorescence scan
T2 construct: 100 μg's of total membrane protein extracts containing PBPs; endogenous in cells; host or cells: Escherichia coli K12 membrane fraction
T2 sequence (P02918 whole entry): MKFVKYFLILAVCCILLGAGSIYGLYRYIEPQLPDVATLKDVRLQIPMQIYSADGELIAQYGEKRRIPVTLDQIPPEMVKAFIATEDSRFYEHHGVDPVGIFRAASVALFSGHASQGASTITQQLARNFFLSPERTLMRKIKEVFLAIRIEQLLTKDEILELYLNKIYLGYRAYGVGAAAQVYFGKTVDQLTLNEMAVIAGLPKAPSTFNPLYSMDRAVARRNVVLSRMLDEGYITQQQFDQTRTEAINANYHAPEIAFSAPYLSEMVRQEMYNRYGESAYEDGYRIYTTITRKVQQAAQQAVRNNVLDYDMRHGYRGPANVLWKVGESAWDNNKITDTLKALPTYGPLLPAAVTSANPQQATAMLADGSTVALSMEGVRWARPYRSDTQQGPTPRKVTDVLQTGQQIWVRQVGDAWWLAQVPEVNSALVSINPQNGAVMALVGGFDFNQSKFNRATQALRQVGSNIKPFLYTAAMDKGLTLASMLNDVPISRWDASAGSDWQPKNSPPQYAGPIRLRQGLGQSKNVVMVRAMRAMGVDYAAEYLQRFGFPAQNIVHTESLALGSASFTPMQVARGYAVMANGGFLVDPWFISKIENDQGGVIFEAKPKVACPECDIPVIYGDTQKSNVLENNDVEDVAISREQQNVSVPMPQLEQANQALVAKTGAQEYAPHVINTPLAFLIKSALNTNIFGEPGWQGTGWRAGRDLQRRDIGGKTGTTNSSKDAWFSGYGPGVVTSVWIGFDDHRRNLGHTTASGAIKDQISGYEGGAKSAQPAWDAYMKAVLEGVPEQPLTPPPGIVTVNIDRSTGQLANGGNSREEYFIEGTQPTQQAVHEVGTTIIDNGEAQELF
Experimental: as §1, §4, §5

[7] = tested on: E. coli DH5α/pLBII; experiment: Broth microdilution MIC assay, empty vector control strain; type: cell-based; settings: Escherichia coli, read-out: E. coli DH5α/pLBII Microbiological Activity (MIC)
Summary of the method: as §2

[8] = target: T3, PBP1a from Escherichia coli (Escherichia coli, UniProt P02918); experiment: Radioligand competition binding assay with 14C-labeled boronic acid probe (Example 96); settings: 14C-labeled probe 96 at 20 μM, PBP 0.1 μM; read-out: E. coli K12 PBP1a EC50
T3 construct: made in house
T3 sequence (P02918 whole entry): as above
Text: (§6) To determine the ability of boronic acid-based test PBP inhibitors to bind Penicillin Binding Proteins (PBPs), a radio-labelled boronic acid PBP inhibitor (Example 96) was used in competition binding assays to determine boronic acid PBP inhibitor binding to PBP1a or PBP1b from Escherichia coli. PBP1a and PBP1b were purified as described previously (Bertsche, U.; et al., J. Biol. Chem. 2005, 280 (45), 38096-38101; Born, P.; et al., J Biol. Chem. 2006. 281 (37), 26985-26993). To establish assay conditions for competition binding, an enzyme titration/saturation binding experiment was performed. Saturation binding was performed in a buffer comprised of 20 mM Tris (pH 7.5), 500 mM NaCl and 0.1% (v/v) TritonX-100, with PBP1a/PBP1b at a final concentration of 0.1 μM and 96 at final concentrations ranging from 0-100 μM. Mixtures were incubated for 60 minutes, then applied to Zeba Spin Desalting columns or plates (ThermoFisher Scientific) and centrifuged at 1000-1500×g for 2 minutes. The flow through, containing PBP bound with 96, was recovered and 100 μL mixed with 5 mL of UltimaGold liquid scintillation cocktail (Perkin Elmer), and the radioactivity counted using a Beckman Coulter LS 6500 Multipurpose scintillation counter. PBP binding of 96 approached saturation at 20 μM of ^14C-labeled probe. The competition binding assay was validated using the beta-lactam ampicillin, with 96 at a final concentration of 20 μM, PBP1a/PBP1b at a final concentration of 0.1 μM. PBP1a/PBP1b was incubated with ampicillin in a 96-well microplate for 60 minutes, then 96 was added and the mixtures incubated for an additional 60 minutes. The mixtures were then applied to Zeba Spin desalting plates and centrifuged at 1000×g for 2 minutes. The flow through was recovered and 100 μl mixed with 5 ml of UltimaGold liquid scintillation cocktail and the radioactivity counted. Ampicillin inhibited binding of 96 with an EC50 (the concentration of inhibitor required to reduce binding of 96 by 50%) of less than 0.5 μM. Binding assays with boronic acid PBP inhibitors were performed in an identical fashion. The potency of boronic acid PBP inhibitors was reported as the EC50 value.
(§7) Representative results are shown in Table 5, where A represents a potency of >100 μM, B represents a potency between 10 μM and 100 μM inclusive, and C represents a potency of <10 μM. NT=Not Tested.

[9] = target: T4, PBP1b from Escherichia coli (Escherichia coli, UniProt P02919); experiment: as above; settings: 14C-labeled probe 96 at 20 μM, PBP 0.1 μM; read-out: E. coli K12 PBP1b EC50
T4 construct: made in house
T4 sequence (P02919 whole entry): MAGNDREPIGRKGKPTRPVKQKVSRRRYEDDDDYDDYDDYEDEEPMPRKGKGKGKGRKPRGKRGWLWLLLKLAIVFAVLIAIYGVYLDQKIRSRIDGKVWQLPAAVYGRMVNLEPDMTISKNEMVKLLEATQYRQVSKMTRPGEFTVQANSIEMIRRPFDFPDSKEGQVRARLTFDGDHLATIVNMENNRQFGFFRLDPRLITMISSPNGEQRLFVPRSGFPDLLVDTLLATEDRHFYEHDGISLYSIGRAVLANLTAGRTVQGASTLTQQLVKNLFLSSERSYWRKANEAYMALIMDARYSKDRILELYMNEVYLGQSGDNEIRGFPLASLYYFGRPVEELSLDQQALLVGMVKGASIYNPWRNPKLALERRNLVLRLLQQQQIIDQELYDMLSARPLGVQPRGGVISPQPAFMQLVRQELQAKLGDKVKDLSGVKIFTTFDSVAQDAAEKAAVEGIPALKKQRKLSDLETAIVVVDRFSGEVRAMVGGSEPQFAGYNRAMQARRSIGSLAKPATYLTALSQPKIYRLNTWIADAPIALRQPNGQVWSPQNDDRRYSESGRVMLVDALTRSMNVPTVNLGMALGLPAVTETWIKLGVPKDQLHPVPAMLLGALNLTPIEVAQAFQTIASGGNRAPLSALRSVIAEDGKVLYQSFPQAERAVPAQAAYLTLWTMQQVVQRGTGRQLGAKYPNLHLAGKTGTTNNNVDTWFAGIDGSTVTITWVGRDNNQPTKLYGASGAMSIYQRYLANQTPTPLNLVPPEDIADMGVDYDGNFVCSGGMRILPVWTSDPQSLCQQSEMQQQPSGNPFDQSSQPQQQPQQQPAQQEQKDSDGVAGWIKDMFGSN
Text: as §6, §7

[10] = target: T5, PBP3 from Escherichia coli (Escherichia coli, UniProt P0AD68); experiment: Fluorescence polarization competition binding assay with Bocillin-FL
T5 construct: made in house
T5 sequence (P0AD68 1-577): as the sequence (P0AD68 1-577) above
Summary of the method: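 Fluorescence polarization competition assay with Bocillin-FL at 0.1 μM final and purified E. coli PBP3 at 1.5 μM final in 50 mM Hepes pH 8.0, 300 mM NaCl, 5% glycerol. Inhibitor preincubated with PBP3 for 30 min before probe addition; FP then read continuously for 60 min. Potency reported in binned categories.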

| Structure (SMILES) | E. coli PBP1b Potency [1] | MIC [2] [µg/mL] | MIC [3] [µg/mL] | MIC [4] [µg/mL] | E. coli PBP3 Potency [5] | E. coliK12 PBP1a Potency [6] | MIC [7] [µg/mL] | EC50 [8] [µM] | EC50 [9] [µM] | EC50 [10] [µM] |
| --- | --- | --- | --- | --- | --- | --- | --- | --- | --- | --- |
| N[C@H](C(=O)N[C@H]1Cc2cccc(C(=O)O)c2OB1O)c1ccccc1 [Example 3, (R)-3-((S)-2-amino-2-phenylacetamido)-2-hydroxy-3,4-dihydro-2H-benzo[e][1,2]oxaborinine-8-carboxylic acid] | A (A represents a potency of >1000 μg/mL) | 128 to 256 | > 128 | 64 to 128 | A (A represents a potency of >1000 μg/mL) | B (B represents a potency between 64 and 1000 μg/mL inclusive) | 128 to 256 |  |  |  |
| Nc1nc(C(NS(N)(=O)=O)C(=O)N[C@H]2Cc3cccc(C(=O)O)c3OB2O)cs1 (stereo partly drawn) [Example 26, (3R)-3-(2-(2-aminothiazol-4-yl)-2-(sulfamoylamino)acetamido)-2-hydroxy-3,4-dihydro-2H-benzo[e][1,2]oxaborinine-8-carboxylic acid] |  | 32 to 64 | > 128 | < 64 |  |  | 32 to 64 | < 10 | 10 to 100 | 30 to 500 |
| CCN1CCN(C(=O)N[C@H](C)C(=O)N[C@H]2Cc3cccc(C(=O)O)c3OB2O)C(=O)C1=O [Example 34, (R)-3-((R)-2-(4-Ethyl-2,3-dioxopiperazine-1-carboxamido)propanamido)-2-hydroxy-3,4-dihydro-2H-benzo[e][1,2]oxaborinine-8-carboxylic acid] |  | 128 to 256 | > 128 | < 64 |  |  | 128 to 256 | 10 to 100 | < 10 | 30 to 500 |
| Nc1nc(C(NC(=O)N2CCN(CC3CC3)C(=O)C2=O)C(=O)N[C@H]2Cc3cccc(C(=O)O)c3OB2O)cs1 (stereo partly drawn) [Example 67, (3R)-3-(2-(2-aminothiazol-4-yl)-2-(4-(cyclopropylmethyl)-2,3-dioxopiperazine-1-carboxamido)acetamido)-2-hydroxy-3,4-dihydro-2H-benzo[e][1,2]oxaborinine-8-carboxylic acid] |  | 32 to 64 | 64 to 128 | < 64 |  |  | 32 to 64 |  | < 10 | 30 to 500 |
| CCN1CCN(C(=O)N[C@H](C(=O)N[C@H]2Cc3cccc(C(=O)O)c3OB2O)[C@H](O)CO)C(=O)C1=O [Example 73, (R)-3-((2S,3S)-2-(4-ethyl-2,3-dioxopiperazine-1-carboxamido)-3,4-dihydroxybutanamido)-2-hydroxy-3,4-dihydro-2H-benzo[e][1,2]oxaborinine-8-carboxylic acid] |  | > 512 | > 128 | > 128 |  |  | > 512 |  | > 100 | > 500 |
| CCN1CCN(C(=O)N[C@@H](C(=O)N[C@H]2Cc3cccc(C(=O)O)c3OB2O)C(C)C)C(=O)C1=O [Example 78, (R)-3-((R)-2-(4-ethyl-2,3-dioxopiperazine-1-carboxamido)-3-methylbutanamido)-2-hydroxy-3,4-dihydro-2H-benzo[e][1,2]oxaborinine-8-carboxylic acid] |  | 32 to 64 | 64 to 128 | < 64 |  |  | 32 to 64 |  | < 10 | < 30 |

Reference: US11332485B2, “Penicillin-binding protein inhibitors” (priority 2017, dated 2022)
